Measured values: patent US20240366589A1, “NHE3-BINDING COMPOUNDS AND METHODS FOR INHIBITING PHOSPHATE TRANSPORT” (Ardelyx, Inc., priority 2013, published 2024)

Legend:
Rat NHE3 = target: T1, Rat NHE3 (Rattus norvegicus, UniProt P26433); assay: Cell-based NHE3 activity under prompt conditions (OK cells, BCECF pH recovery), rat NHE3; details: prompt conditions; for IC50: read-out: Prompt Rat NHE3 pIC50 (converted)
T1 construct: expressed in transfected cells; host or cells: Opossum kidney (OK) cells (ATCC), electroporation
T1 sequence (P26433 29-831): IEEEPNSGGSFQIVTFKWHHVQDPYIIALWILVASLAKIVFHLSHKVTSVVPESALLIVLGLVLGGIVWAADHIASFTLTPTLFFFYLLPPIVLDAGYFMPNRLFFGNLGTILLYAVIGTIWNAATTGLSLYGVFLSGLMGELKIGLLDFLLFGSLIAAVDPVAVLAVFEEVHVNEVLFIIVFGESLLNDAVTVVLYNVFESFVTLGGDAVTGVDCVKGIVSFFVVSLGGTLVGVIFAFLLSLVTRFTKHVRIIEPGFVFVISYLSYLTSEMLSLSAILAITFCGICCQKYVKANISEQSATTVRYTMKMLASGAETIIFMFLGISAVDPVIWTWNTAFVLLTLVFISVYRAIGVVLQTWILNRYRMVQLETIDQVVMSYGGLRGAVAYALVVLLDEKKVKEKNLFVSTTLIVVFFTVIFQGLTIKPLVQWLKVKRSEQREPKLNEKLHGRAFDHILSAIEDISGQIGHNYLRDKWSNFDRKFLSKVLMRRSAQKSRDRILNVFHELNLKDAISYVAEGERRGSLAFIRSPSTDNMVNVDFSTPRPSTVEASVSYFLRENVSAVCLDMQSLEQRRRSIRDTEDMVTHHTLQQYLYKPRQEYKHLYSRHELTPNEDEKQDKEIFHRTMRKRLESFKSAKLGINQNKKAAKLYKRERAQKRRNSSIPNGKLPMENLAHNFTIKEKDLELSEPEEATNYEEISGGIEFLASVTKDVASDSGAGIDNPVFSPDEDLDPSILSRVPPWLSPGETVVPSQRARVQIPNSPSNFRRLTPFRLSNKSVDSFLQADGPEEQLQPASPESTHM
Outline: (§1)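 OK cells electroporated with rat or human NHE3 gene, loaded 30 min at room temperature with 5 μM BCECF-AM in NH4Cl-HEPES pH 7.4.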

[1] = tested on: absorption of sodium from the intestinal lumen; assay: Inhibition of intestinal sodium absorption: urinary sodium (uNa) 16 h after single oral dose in rats; format: in vivo, rat; details: oral gavage, 16 h post-dose
Outline: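 Eight-week-old Sprague-Dawley rats (n=6) given single oral gavage of compound or water vehicle in the late afternoon, then kept in metabolic cages with chow and water ad libitum. Urine collected over 16 h; sodium quantified by ion chromatography and expressed as % of vehicle mean, compared by one-way ANOVA with Dunnett's test.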

[2] = tested on: phosphorus and calcium levels in the urine of rats; assay: Urinary excretion of phosphate and calcium in rats (16 h overnight urine); format: in vivo, rat; details: rats, oral gavage, 16 h post-dose
[3] = tested on: absorption of sodium from the intestinal lumen; assay: Fecal form score (FFS) 16 h after oral dose in rats; format: in vivo, rat; details: oral gavage, 16 h post-dose, scale 1-5
Outline: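 Eight-week-old Sprague-Dawley rats (n=6) dosed by oral gavage with compound or water vehicle between 4 and 5 PM, then housed in metabolic cages with food and water ad libitum. At 16 h, fecal form scored 1 (normal pellet) to 5 (liquid streams) by two observers; group mean reported.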

Human NHE3 = target: T2, Human NHE3 (Homo sapiens, UniProt P48764); assay: Cell-based NHE3 activity under prompt conditions (OK cells, BCECF pH recovery), human NHE3; details: prompt conditions
T2 construct: expressed in transfected cells; host or cells: Opossum kidney (OK) cells (ATCC), electroporation
T2 sequence (P48764 26-834): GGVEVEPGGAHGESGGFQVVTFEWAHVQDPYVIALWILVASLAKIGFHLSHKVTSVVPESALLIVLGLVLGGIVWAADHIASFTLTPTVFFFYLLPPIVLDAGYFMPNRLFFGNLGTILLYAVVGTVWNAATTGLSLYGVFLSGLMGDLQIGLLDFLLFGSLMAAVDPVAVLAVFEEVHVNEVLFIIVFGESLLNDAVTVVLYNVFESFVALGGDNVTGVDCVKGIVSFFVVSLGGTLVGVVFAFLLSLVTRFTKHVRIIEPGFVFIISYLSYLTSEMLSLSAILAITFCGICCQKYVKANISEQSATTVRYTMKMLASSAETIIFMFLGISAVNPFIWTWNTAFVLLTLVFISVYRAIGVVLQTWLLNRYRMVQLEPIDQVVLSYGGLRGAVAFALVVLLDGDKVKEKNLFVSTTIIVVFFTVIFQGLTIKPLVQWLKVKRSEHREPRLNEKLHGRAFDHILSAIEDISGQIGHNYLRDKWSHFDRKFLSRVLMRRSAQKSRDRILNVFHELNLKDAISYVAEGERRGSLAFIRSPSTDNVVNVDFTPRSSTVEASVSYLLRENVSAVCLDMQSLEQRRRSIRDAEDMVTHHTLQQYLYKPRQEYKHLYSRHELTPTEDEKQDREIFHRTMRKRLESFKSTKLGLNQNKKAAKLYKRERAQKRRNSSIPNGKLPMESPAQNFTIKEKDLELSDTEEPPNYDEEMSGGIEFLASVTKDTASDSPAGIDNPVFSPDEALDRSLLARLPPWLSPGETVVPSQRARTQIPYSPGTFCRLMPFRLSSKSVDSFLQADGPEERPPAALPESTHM
Outline: as §1

| Prompt Rat NHE3 pIC50 (Rat NHE3) | Prompt Human NHE3 pIC50 (Human NHE3) | IC50 (Human NHE3; read-out: Prompt Human NHE3 pIC50 (converted)) [nM] | IC50 (Rat NHE3) [nM] | Compound | Urine Na % of control ([1]; dose 10 mg/kg) [%] | Urine P % of control ([2]; dose 10 mg/kg) [%] | Fecal Form Score average ([3]; dose 10 mg/kg) | Urine Na % of control ([1]; dose 3 mg/kg) [%] | Urine P % of control ([2]; dose 3 mg/kg) [%] | Fecal Form Score average ([3]; dose 3 mg/kg) | Urine Na % of control ([1]; dose 1 mg/kg) [%] | Urine P % of control ([2]; dose 1 mg/kg) [%] | Fecal Form Score average ([3]; dose 1 mg/kg) |
| --- | --- | --- | --- | --- | --- | --- | --- | --- | --- | --- | --- | --- | --- |
| <5.00 | 8.70 | – | – | CN(C)[C@H]1Cc2c(Cl)cc(Cl)cc2[C@@H]1Oc1ccc(S(=O)(=O)NCCOCCOCCNC(=O)Nc2ccc(NC(=O)NCCOCCOCCNS(=O)(=O)c3ccc(O[C@H]4c5cc(Cl)cc(Cl)c5C[C@@H]4N(C)C)cc3)cc2)cc1 [compound 152] | 26 | 74 | 1 | – | – | – | – | – | – |
| 8.60 | – | ≥ 10000 | – | O=C(NCCCCNC(=O)NCCOCCOCCNS(=O)(=O)c1ccc(O[C@H]2c3ccccc3C[C@@H]2N2CCCC2)cc1)NCCOCCOCCNS(=O)(=O)c1ccc(O[C@H]2c3ccccc3C[C@@H]2N2CCCC2)cc1 [compound 99] | 41 | 52 | 1 | – | – | – | – | – | – |

The next lines start with the molecule.

| Compound | Prompt Rat NHE3 pIC50 (Rat NHE3) | Prompt Human NHE3 pIC50 (Human NHE3) | IC50 (Human NHE3; read-out: Prompt Human NHE3 pIC50 (converted)) [nM] | IC50 (Rat NHE3) [nM] | Urine Na % of control ([1]; dose 10 mg/kg) [%] | Urine P % of control ([2]; dose 10 mg/kg) [%] | Fecal Form Score average ([3]; dose 10 mg/kg) | Urine Na % of control ([1]; dose 3 mg/kg) [%] | Urine P % of control ([2]; dose 3 mg/kg) [%] | Fecal Form Score average ([3]; dose 3 mg/kg) | Urine Na % of control ([1]; dose 1 mg/kg) [%] | Urine P % of control ([2]; dose 1 mg/kg) [%] | Fecal Form Score average ([3]; dose 1 mg/kg) |
| --- | --- | --- | --- | --- | --- | --- | --- | --- | --- | --- | --- | --- | --- |
| CN1Cc2c(Cl)cc(Cl)cc2[C@H](c2cccc(S(=O)(=O)NCCOCCOCCNC(=O)NCCCC(CCCNC(=O)NCCOCCOCCNS(=O)(=O)c3cccc([C@@H]4CN(C)Cc5c(Cl)cc(Cl)cc54)c3)(CCCNC(=O)NCCOCCOCCNS(=O)(=O)c3cccc([C@@H]4CN(C)Cc5c(Cl)cc(Cl)cc54)c3)NC(=O)NC[C@H](O)[C@@H](O)[C@H](O)[C@H](O)CO)c2)C1 [compound 167] | 5.80 | 8.37 | – | – | – | – | – | 36 | 99 | 2 | – | – | – |
| CN1Cc2c(Cl)cc(Cl)cc2[C@H](c2cccc(S(=O)(=O)NCCOCCOCCN(C)C(=O)NCCCN(CCCNC(=O)N(C)CCOCCOCCNS(=O)(=O)c3cccc([C@@H]4CN(C)Cc5c(Cl)cc(Cl)cc54)c3)CCCNC(=O)N(C)CCOCCOCCNS(=O)(=O)c3cccc([C@@H]4CN(C)Cc5cc(Cl)cc(Cl)c54)c3)c2)C1 [compound 131] | – | 7.20 | – | 794 | – | – | – | 38 | 68 | 2 | – | – | – |
| O=C(NCCCCNC(=O)NCCOCCOCCOCCNS(=O)(=O)c1ccc(O[C@H]2c3ccccc3C[C@@H]2N2CCCCC2)cc1)NCCOCCOCCOCCNS(=O)(=O)c1ccc(O[C@H]2c3ccccc3C[C@@H]2N2CCCCC2)cc1 [compound 72] | – | 8.25 | – | 5.01 | 33 | 43 | 1 | 74 | 115 | 2 | 82 | 99 | 1 |
| CN1Cc2c(Cl)cc(Cl)cc2[C@H](c2cccc(S(=O)(=O)NCCOCCOCCNC(=O)CN(CC(=O)NCCOCCOCCNS(=O)(=O)c3cccc([C@@H]4CN(C)Cc5c(Cl)cc(Cl)cc54)c3)CC(=O)NCCOCCOCCNS(=O)(=O)c3cccc([C@@H]4CN(C)Cc5c(Cl)cc(Cl)cc54)c3)c2)C1 [compound 74] | 6.30 | 6.80 | – | – | 30 | 44 | 3 | – | – | – | – | – | – |
| CN1Cc2c(Cl)cc(Cl)cc2[C@H](c2cccc(S(=O)(=O)NCCOCCOCCNC(=O)NCCN(CCNC(=O)NCCOCCOCCNS(=O)(=O)c3cccc([C@@H]4CN(C)Cc5c(Cl)cc(Cl)cc54)c3)CCNC(=O)NCCOCCOCCNS(=O)(=O)c3cccc([C@@H]4CN(C)Cc5c(Cl)cc(Cl)cc54)c3)c2)C1 [compound 76] | 5.60 | 6.40 | – | – | 12 | 61 | 3 | 40 | 89 | 2 | 58 | 96 | 1 |
